The nature of data set [1]: Micropipette aspiration of vesicle membranes (bending and area expansion moduli, rupture). The data set is classed as physicochemical. The settings on record: vesicles formed by electroformation. Here is the method:
The tool that has been used to measure many of the material properties of bilayer vesicles is “micropipette aspiration” as applied in FIG. 2. In micropipette aspiration, the rheology and material properties of micron-sized objects are measured using glass pipettes. Small, micron diameter pipettes are used to pick up, deform and manipulate micron-sized objects, such as giant lipid vesicles. The aspiration pressure is controlled by manometers, in which the hydrostatic pressure in a reservoir connected to the micropipette is varied in relation to a fixed reference. Pressure may be varied with a resolution of microns of H2O (or 10^−6 atm).
A deformable object is aspirated using a pressure driving force (or suction pressure), ΔP, and the object is drawn within the pipette to a projection length LP. […] The bending modulus is measured by exerting small tensions on the membrane, to smooth out thermally-driven surface undulations. […]
Analogous to a lipid bilayer, at low but increasing aspiration pressures, the thermally undulating polymersome membrane was progressively smoothed, increasing the projected area logarithmically with tension, τ, (FIG. 3A). From the slope of this increase (in tension units of mN/m) versus the fractional change, α, in vesicle area the bending modulus, Kb, was calculated (see, e.g., Evans et al., Phys. Rev. Lett. 64:2094 (1990); Helfrich et al., Nuovo Cimento D3:137 (1984)). […]

Data set [2] can be described thus: Lipid probe incorporation and diffusivity by laser-photobleaching. It is filed as physicochemical. An excerpt: In the same way, mixtures can be made of the copolymer amphiphiles with other synthetic or non-synthetic amphiphiles, such as, lipids or proteins. […] FIGS. 6A and 6B show the uniformity of fluorescence around an aspirated contour of membrane with 3 mol % mixed in with polymer before vesicle formation.

Here are results for one molecule from patent US7867512B2, “Cross-linked polymersomes and related encapsulating membranes” (The Trustees of the University of Pennsylvania, priority 1999, dated 2011).

`CCCCCCCC/C=C\CCCCCCCC(=O)O[C@H](COC(=O)CCCCCCCCCCCCCCCCC)COP(=O)([O-])OCC[N+](C)(C)C` [SOPC, 1-stearoyl-2-oleoyl phosphatidylcholine]: the “Ka, elastic modulus for area expansion” value in data set [1] is about 180 mN/m. In addition, the lipid probe diffusivity result in data set [2] was “approximately 3×10^−8 cm^2/s”.
